# Test results reported in ChEMBL document CHEMBL1145064, “Fluorine substitution can block CYP3A4 metabolism-dependent inhibition: identification of (S)-N-[1-(4-fluoro-3- morpholin-4-ylphenyl)ethyl]-3- (4-fluorophenyl)acrylamide as an orally bioavailable KCNQ2 opener devoid of CYP3A4 metabolism-dependent inhibition” (J Med Chem, 2003).
# How the values were obtained:
# [1] = molecular target: T1, Cytochrome P450 3A4 (Homo sapiens, UniProt P08684); test: Inhibition of recombinant human Cytochrome P450 3A4 with Benzoylresorufin; type: ADME
# T1 sequence (P08684 whole entry): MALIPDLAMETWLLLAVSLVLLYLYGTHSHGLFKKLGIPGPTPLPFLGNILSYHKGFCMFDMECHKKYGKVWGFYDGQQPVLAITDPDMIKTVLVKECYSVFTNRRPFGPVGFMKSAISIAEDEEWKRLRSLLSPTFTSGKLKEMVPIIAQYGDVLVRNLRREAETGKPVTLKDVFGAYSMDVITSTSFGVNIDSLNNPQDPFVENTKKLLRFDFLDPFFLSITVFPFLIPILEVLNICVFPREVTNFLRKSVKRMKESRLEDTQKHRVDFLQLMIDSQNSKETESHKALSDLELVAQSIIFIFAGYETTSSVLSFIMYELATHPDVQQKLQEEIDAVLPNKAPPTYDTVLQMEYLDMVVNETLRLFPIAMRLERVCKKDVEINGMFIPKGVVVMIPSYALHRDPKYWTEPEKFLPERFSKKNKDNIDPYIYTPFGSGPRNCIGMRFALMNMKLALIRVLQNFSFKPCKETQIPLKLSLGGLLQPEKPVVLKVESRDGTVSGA
# [2] = molecular target: Cytochrome P450 2D6 (Homo sapiens, UniProt P10635); test: Inhibition of recombinant human Cytochrome P450 2D6; type: ADME
# Chain of Cytochrome P450 2D6 (P10635 whole entry): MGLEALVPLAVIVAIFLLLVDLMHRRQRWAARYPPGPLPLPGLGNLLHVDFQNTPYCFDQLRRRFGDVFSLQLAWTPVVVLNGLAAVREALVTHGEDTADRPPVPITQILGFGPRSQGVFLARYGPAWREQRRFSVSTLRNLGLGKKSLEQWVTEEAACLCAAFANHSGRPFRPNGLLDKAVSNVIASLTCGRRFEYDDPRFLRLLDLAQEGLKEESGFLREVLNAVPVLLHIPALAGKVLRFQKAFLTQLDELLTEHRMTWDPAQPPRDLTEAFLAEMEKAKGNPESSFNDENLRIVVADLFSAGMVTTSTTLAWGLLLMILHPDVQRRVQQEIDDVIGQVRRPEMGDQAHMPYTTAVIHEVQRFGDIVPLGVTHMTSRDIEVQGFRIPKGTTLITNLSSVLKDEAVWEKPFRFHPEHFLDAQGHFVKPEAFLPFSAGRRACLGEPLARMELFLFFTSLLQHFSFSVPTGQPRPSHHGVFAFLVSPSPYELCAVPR
# [3] = molecular target: T1, Cytochrome P450 3A4
# Description: Inhibition of recombinant human Cytochrome P450 3A4 with BFC [7-benzyloxy-4-trifluoromethylcoumarin] after 45 minutes
# [4] = molecular target: Cytochrome P450 2C9 (Homo sapiens, UniProt P11712); test: Inhibition of recombinant human Cytochrome P450 2C9; type: ADME
# Chain of Cytochrome P450 2C9 (P11712 whole entry): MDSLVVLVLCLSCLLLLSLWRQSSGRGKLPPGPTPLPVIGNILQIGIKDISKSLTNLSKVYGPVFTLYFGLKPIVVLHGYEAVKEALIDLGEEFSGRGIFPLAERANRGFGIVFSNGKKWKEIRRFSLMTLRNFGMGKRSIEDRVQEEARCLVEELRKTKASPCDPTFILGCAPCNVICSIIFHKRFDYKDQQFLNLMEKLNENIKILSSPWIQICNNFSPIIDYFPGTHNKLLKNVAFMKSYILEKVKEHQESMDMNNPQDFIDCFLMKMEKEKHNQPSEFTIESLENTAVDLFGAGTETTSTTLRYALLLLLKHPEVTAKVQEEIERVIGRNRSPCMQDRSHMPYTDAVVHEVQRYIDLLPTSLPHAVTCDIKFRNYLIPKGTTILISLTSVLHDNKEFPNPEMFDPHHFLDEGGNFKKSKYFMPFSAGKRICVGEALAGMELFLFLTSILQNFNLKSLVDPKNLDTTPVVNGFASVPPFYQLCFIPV
# [5] = molecular target: Potassium voltage-gated channel subfamily KQT member 2 (Homo sapiens, UniProt O43526); test: Effective concentration against Potassium voltage gated channel, KQT-like subfamily, member 2 expressed in SH-SY5Y human neuroblastoma cells; type: cell-based
# Chain of Potassium voltage-gated channel subfamily KQT member 2 (O43526 whole entry): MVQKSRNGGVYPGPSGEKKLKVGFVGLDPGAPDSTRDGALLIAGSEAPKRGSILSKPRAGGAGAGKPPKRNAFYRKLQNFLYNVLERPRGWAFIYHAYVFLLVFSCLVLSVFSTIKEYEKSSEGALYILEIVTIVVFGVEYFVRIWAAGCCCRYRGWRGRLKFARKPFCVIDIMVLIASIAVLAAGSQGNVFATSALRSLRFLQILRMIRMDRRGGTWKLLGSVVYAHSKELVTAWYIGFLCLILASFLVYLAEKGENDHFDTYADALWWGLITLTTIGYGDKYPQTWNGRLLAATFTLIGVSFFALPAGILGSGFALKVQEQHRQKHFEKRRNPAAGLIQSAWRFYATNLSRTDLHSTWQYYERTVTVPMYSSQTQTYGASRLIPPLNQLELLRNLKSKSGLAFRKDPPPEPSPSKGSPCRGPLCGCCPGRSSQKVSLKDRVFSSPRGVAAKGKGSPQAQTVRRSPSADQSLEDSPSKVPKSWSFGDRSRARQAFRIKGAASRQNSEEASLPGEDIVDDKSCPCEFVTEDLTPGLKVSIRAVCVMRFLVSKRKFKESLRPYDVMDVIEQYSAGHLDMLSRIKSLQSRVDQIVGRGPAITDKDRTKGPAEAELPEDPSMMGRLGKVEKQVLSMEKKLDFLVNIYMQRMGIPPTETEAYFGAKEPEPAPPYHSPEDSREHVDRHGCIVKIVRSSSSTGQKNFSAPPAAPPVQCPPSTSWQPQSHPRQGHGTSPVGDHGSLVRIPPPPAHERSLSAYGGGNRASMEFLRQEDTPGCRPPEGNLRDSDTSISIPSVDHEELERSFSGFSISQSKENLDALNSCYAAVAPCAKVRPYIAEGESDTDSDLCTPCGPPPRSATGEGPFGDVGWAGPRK
# [6] = molecular target: T2, Cytochrome P450 1A2 (Homo sapiens, UniProt P05177); test: Inhibition of recombinant human Cytochrome P450 1A2; type: ADME
# T2 sequence (P05177 whole entry): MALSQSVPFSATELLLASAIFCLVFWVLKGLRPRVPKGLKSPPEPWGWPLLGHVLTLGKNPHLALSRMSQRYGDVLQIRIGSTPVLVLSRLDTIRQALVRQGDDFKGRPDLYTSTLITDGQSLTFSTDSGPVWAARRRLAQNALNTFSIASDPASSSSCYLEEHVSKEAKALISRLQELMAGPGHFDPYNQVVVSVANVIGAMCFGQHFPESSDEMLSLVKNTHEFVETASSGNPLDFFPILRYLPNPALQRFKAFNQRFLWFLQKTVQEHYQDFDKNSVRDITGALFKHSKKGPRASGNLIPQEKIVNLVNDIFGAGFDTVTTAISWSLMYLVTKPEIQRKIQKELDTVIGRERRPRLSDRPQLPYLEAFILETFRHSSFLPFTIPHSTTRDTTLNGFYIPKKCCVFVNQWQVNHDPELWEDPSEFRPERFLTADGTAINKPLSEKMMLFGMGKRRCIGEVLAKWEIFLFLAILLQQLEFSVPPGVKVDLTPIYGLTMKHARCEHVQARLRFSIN
# [7] = molecular target: T1, Cytochrome P450 3A4; type: ADME
# [8] = molecular target: T1, Cytochrome P450 3A4; remark: listed apart in the source
# Description: Inhibition of recombinant human Cytochrome P450 3A4 with BFC [7-benzyloxy-4-trifluoromethylcoumarin] after 15 minutes
# [9] = molecular target: Cytochrome P450 2C19 (Homo sapiens) (UniProt P33261); test: Inhibition of recombinant human Cytochrome P450 2C19
# Chain of Cytochrome P450 2C19 (Homo sapiens) (P33261 whole entry, looked up): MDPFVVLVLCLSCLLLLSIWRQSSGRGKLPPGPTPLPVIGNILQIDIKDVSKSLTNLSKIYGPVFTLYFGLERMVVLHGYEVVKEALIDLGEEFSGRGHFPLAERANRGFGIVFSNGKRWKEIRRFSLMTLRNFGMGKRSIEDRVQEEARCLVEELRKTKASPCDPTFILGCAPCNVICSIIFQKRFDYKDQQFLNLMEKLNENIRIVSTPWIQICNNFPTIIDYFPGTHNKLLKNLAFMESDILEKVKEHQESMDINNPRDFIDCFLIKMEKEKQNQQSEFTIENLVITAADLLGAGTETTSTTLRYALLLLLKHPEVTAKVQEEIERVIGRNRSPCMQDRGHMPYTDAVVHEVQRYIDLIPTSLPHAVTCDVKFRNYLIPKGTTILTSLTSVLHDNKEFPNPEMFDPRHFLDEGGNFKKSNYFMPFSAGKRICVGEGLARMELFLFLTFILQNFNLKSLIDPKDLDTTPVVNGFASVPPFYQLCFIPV
# [10] = molecular target: Potassium voltage-gated channel subfamily KQT member 2 (Mus musculus) (UniProt Q9Z351); test: Effective concentration against Potassium voltage gated channel KQT-like subfamily, member 2 (mouse) expressed in HEK 293 cells
# Chain of Potassium voltage-gated channel subfamily KQT member 2 (Mus musculus) (Q9Z351 whole entry, looked up): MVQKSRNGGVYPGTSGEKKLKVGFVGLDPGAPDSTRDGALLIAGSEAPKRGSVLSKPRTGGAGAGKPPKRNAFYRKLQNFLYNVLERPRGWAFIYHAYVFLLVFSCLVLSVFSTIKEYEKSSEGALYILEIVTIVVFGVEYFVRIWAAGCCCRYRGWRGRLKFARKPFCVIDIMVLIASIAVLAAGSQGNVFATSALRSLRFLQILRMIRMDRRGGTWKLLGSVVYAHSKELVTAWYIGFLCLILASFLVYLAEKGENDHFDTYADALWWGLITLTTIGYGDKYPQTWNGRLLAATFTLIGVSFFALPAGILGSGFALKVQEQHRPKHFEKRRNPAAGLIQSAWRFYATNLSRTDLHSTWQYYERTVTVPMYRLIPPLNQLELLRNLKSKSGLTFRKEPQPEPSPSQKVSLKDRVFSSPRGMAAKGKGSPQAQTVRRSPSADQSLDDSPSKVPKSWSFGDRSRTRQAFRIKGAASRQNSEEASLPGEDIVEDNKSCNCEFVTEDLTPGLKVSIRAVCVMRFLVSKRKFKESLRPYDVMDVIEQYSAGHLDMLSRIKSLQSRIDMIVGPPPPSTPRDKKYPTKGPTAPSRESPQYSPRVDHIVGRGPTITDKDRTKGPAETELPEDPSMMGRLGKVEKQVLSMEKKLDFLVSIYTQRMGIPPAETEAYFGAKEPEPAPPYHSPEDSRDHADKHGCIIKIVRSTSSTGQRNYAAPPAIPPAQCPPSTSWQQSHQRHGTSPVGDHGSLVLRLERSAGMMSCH
# [11] = molecular target: T1, Cytochrome P450 3A4; remark: listed apart in the source
# Description: Inhibition of recombinant human Cytochrome P450 3A4 with BFC [7-benzyloxy-4-trifluoromethylcoumarin] after 5 minutes
# [12] = molecular target: T1, Cytochrome P450 3A4; remark: listed apart in the source
# Description: Inhibition of recombinant human Cytochrome P450 3A4 using BFC [7-benzyloxy-4-trifluoromethylcoumarin] after 30 minutes
# [13] = Plasma clearance in rat after i.v. dose of 1 mg/kg; type: ADME, organism-based; parameters: dose 1 mg/kg, route intravenous; conditions: iv
# [14] = Elimination half life in rat after i.v. dose of 1 mg/kg; type: ADME, organism-based; parameters: dose 1 mg/kg, route intravenous; conditions: in vivo, iv
# [15] = Vd compound was determined in rat after i.v. dose of 1 mg/kg; type: ADME, organism-based; parameters: dose 1 mg/kg, route intravenous; conditions: in vivo, iv
# [16] = Oral bioavailability in rat after oral administration of 10 mg/kg dose; type: ADME, organism-based; conditions: in vivo
IC50 [1],IC50 [2],IC50 [3],IC50 [4],EC50 [5],IC50 [6],IC50 [7],IC50 [8],IC50 [9],EC50 [10],IC50 [11],IC50 [12],clearance [13],half-life [14],Vd [15],bioavailability [16],Structure (SMILES)
76 µM,> 100 µM,22 µM,5.3 µM,0.69 µM,78 µM,27 µM,62 µM,13 µM,3 µM,96 µM,33 µM,–,–,–,–,C[C@H](NC(=O)/C=C/c1ccccc1)c1cccc(N2CCOCC2)c1
–,–,19 µM,–,1.55 µM,–,–,21 µM,–,1.2 µM,18 µM,19 µM,17.8 mL/min/kg,3.5 h,3.3 L/kg,84%,C[C@H](NC(=O)/C=C/c1ccc(F)cc1)c1ccc(F)c(N2CCOCC2)c1
